# Results reported in ChEMBL document CHEMBL5335870, “Discovery of Hepatitis B Virus Surface Antigen Suppressor GS-8873” (ACS Med Chem Lett, 2024).
# The source made the active and inactive calls. No cut-off for these calls is given here.
# Tests used:
# Hepatitis B virus [1] = assay: Antiviral activity against HBV genome D integrated human HepAD38 cells assessed as reduction in extracellular HBsAg media replaced for every 2 to 3 days incubated for 7 days […]; format: functional, organism-based; details: time 7.0 day
# PC-3 = assay: Cytotoxicity against human PC-3 cells assessed as inhibition of cell viability measured upto 17 uM incubated for 5 days; format: toxicity, cell-based; details: pc-3, 120 h, time 5 day
# Primary hepatocyte [2] = assay: Effect on cccDNA level in HBV infected primary human hepatocyte at 0.25 uM media replaced for every 2 to 3 days incubated for 12 days in presence of Tenofovir by Southern blot analysis; format: functional, cell-based; details: Hepatitis B virus, time 12.0 day
# Hepatitis B virus [3] = assay: Antiviral activity against HBV genome D integrated human HepG2.2.15 cells assessed as reduction in extracellular HBsAg media replaced for every 2 to 3 days incubated for 7 days; format: functional, organism-based; details: time 7.0 day
# A204 = assay: Cytotoxicity against human A204 cells assessed as inhibition of cell viability measured upto 17 uM incubated for 5 days; format: toxicity, cell-based; details: a204, 120 h, time 5 day
# ASPC1 = assay: Cytotoxicity against human AsPC1 cells assessed as inhibition of cell viability measured upto 17 uM incubated for 5 days; format: toxicity, cell-based; details: aspc1, 120 h, time 5 day
# Hepatitis B virus [4] = assay: Antiviral activity against genotype D (AD38-derived) HBV infected in primary human hepatocyte assessed as inhibition of extracellular HBsAg media replaced for every 2 to 3 days incubated for 12 days by multiplex chemiluminescent MSD assay; format: functional; details: time 12 day
# Hepatitis B virus [5] = assay: Antiviral activity against genotype A HBV infected in primary human hepatocyte assessed as reduction in […] replaced for every 2 to 3 days incubated for 12 days by multiplex chemiluminescent MSD assay; format: functional, organism-based; details: time 12.0 day
# OVCAR-3 = assay: Cytotoxicity against human OVCAR-3 cells assessed as inhibition of cell viability measured upto 17 uM incubated for 5 days; format: toxicity, cell-based; details: ovcar-3, 120 h, time 5 day
# Huh-7 = assay: Cytotoxicity against human Huh-7 cells assessed as inhibition of cell viability measured upto 17 uM incubated for 5 days; format: toxicity, cell-based; details: huh-7, 120 h, time 5 day
# A498 = assay: Cytotoxicity against human A498 cells assessed as inhibition of cell viability measured upto 17 uM incubated for 5 days; format: toxicity, cell-based; details: a498, 120 h, time 5 day
# [6] = Cytotoxicity against rat NRVM cells assessed as inhibition of cell viability measured upto 17 uM incubated for 5 days; format: toxicity, cell-based; details: 120 h, time 5 day
# Hepatitis B virus [7] = assay: In vivo antiviral activity against HBV in model of HBV 1.3.32 mouse harboring integrated greater-than-genome-length HBV transgene assessed as plasma HBsAg level measured in off-treatment recovery phase at 50 mg/kg, sc qd treated for 4 weeks (reference value: 1.1 log10 ng/ml); format: functional
# [8] = Oral bioavailability in Sprague-Dawley rat after 24 hrs by LC/MS/MS method; format: ADME, organism-based; details: in vivo
# Primary hepatocyte [9] = assay: Effect on cccDNA level in HBV infected primary human hepatocyte at 0.25 uM media replaced for every 2 to 3 days incubated for 12 days by Southern blot analysis; format: functional, cell-based; details: Hepatitis B virus, time 12.0 day
# [10] = Hepatic extraction in rat; format: ADME; details: read-out: ERH
# [11] = Lipophilicity, logD of the compound; format: physicochemical; details: octanol/water
# Hepatitis B virus [12] = assay: Antiviral activity against genotype E HBV infected in primary human hepatocyte assessed as reduction in […] replaced for every 2 to 3 days incubated for 12 days by multiplex chemiluminescent MSD assay; format: functional, organism-based; details: time 12.0 day
# [13] = In vivo clearance in rat; format: ADME, organism-based
# [14] = system: Woodchuck hepatitis virus; assay: Antiviral activity against WHV-infected Woodchucks assessed as reduction in WHV sAg level in plasma at 15 mg/kg, po qd for 12 weeks; format: functional
# MG-63 = assay: Cytotoxicity against human MG-63 cells assessed as inhibition of cell viability measured upto 17 uM incubated for 5 days; format: toxicity, cell-based; details: mg-63, 120 h, time 5 day
# Hepatocyte = assay: Cytotoxicity against primary human hepatocyte assessed as change in cell morphology; format: toxicity, cell-based; details: hepatocytes
# SK-N-AS = assay: Cytotoxicity against human SK-N-AS cells assessed as inhibition of cell viability measured upto 17 uM incubated for 5 days; format: toxicity, cell-based; details: 120 h, time 5 day
# [15] = Oral bioavailability in cynomolgus monkey at 5 mg/kg; format: ADME, organism-based, Macaca fascicularis; details: in vivo
# A 172 = assay: Cytotoxicity against human A-172 cells assessed as inhibition of cell viability measured upto 17 uM incubated for 5 days; format: toxicity, cell-based; details: a 172, 120 h, time 5 day
# 769-P = assay: Cytotoxicity against human 769-P cells assessed as inhibition of cell viability measured upto 17 uM incubated for 5 days; format: toxicity, cell-based; details: 120 h, time 5 day
# Hepatitis B virus [16] = assay: Antiviral activity against genotype C HBV infected in primary human hepatocyte assessed as reduction in […] replaced for every 2 to 3 days incubated for 12 days by multiplex chemiluminescent MSD assay; format: functional, organism-based; details: time 12.0 day
# [17] = Oral bioavailability in rat at 5 mg/kg; format: ADME, organism-based; details: in vivo
# J82 = assay: Cytotoxicity against human J82 cells assessed as inhibition of cell viability measured upto 17 uM incubated for 5 days; format: toxicity, cell-based; details: j82, 120 h, time 5 day
# [18] = Clearance in Sprague-Dawley rat at […], iv measured after 24 hrs by LC/MS/MS method; format: ADME, organism-based; details: in vivo
# MT4 = assay: Cytotoxicity against human MT4 cells assessed as inhibition of cell viability measured upto 17 uM incubated for 5 days; format: toxicity, cell-based; details: mt4, 120 h, time 5 day
# [19] = In vivo clearance in cynomolgus monkey; format: ADME, organism-based, Macaca fascicularis
# Hepatitis B virus [20] = assay: Antiviral activity against HBV infected in primary human hepatocyte assessed as reduction in intracellular HBsAg protein at 250 nM media replaced for every 2 to 3 days incubated for 14 days by immunofluorescence microscopy; format: functional, organism-based; details: time 14.0 day
# A-375 = assay: Cytotoxicity against human A-375 cells assessed as inhibition of cell viability measured upto 17 uM incubated for 5 days; format: toxicity, cell-based; details: a-375, 120 h, time 5 day
# Hepatitis B virus [21] = assay: In vivo antiviral activity against HBV in model of HBV 1.3.32 mouse harboring integrated greater-than-genome-length HBV transgene assessed as reduction in plasma HBsAg level at 50 mg/kg, sc qd treated for 4 weeks (reference value: 1.1 log10 ng/ml); format: functional
# PBMC = assay: Cytotoxicity against human PBMC cells assessed as inhibition of cell viability measured upto 17 uM incubated for 5 days; format: toxicity, cell-based; details: 120 h, time 5 day
# [22] = Hepatic extraction in cynomolgus monkey; format: ADME, Macaca fascicularis; details: read-out: ERH
# HepG2 = assay: Cytotoxicity against human HepG2 cells assessed as inhibition of cell viability measured upto 17 uM incubated for 5 days; format: toxicity, cell-based; details: hepg2, 120 h, time 5 day
# [23] = In vivo clearance in dog; format: ADME, organism-based, Canis lupus familiaris
# [24] = Hepatic extraction in dog; format: ADME, Canis lupus familiaris; details: read-out: ERH
# AN3-CA = assay: Cytotoxicity against human AN3-CA cells assessed as inhibition of cell viability measured upto 17 uM incubated for 5 days; format: toxicity, cell-based; details: 120 h, time 5 day
# [25] = Oral bioavailability in dog at 5 mg/kg; format: ADME, organism-based, Canis lupus familiaris; details: in vivo
# MRC5 = assay: Cytotoxicity against human MRC5 cells assessed as inhibition of cell viability measured upto 17 uM incubated for 5 days; format: toxicity, cell-based; details: mrc5, 120 h, time 5 day
# Hepatitis B virus [26] = assay: Antiviral activity against genotype B HBV infected in primary human hepatocyte assessed as reduction in […] replaced for every 2 to 3 days incubated for 12 days by multiplex chemiluminescent MSD assay; format: functional, organism-based; details: time 12.0 day
# Hepatitis B virus [27] = assay: Antiviral activity against genotype D HBV infected in sodium taurocholate co-transporting polypeptide receptor-expressing stable HepG2 cell line assessed as suppression of HBsAg level incubated for 5 days by multiplex chemiluminescent MSD assay; format: functional, organism-based; details: HepG2, 120 h
structure (smiles),measurement,setting,value
COCCCOc1cc2c(cc1Cl)-c1cc(=O)c(C(=O)O)cn1N(C(C)(C)C)C2,Activity,Hepatitis B virus [1],Active
same,Activity,PC-3,Non-Toxic
same,Activity,Primary hepatocyte [2],inactive
same,Activity,Hepatitis B virus [3],Active
same,Activity,A204,Non-Toxic
same,Activity,ASPC1,Non-Toxic
same,inhibition (INH),Hepatitis B virus [4],85%
same,Activity,Hepatitis B virus [5],Active
same,Activity,OVCAR-3,Non-Toxic
same,Activity,Huh-7,Non-Toxic
same,Activity,A498,Non-Toxic
same,Activity,[6],Non-Toxic
same,Activity,Hepatitis B virus [7],0.7 log10ng/ml
same,bioavailability,[8],109%
same,Activity,Primary hepatocyte [9],inactive
same,hepatic extraction ratio,[10],0.043
same,logD,[11],2
same,Activity,Hepatitis B virus [12],Active
same,clearance,[13],3 mL/min/kg
same,Activity,[14],1.4 log10ng/ml
same,Activity,MG-63,Non-Toxic
same,Activity,Hepatocyte,Non-Toxic
same,Activity,SK-N-AS,Non-Toxic
same,bioavailability,[15],48%
same,Activity,A 172,Non-Toxic
same,Activity,769-P,Non-Toxic
same,Activity,Hepatitis B virus [16],Active
same,bioavailability,[17],> 100%
same,Activity,J82,Non-Toxic
same,clearance,[18],19.7 mL/min/kg
same,Activity,MT4,Non-Toxic
same,clearance,[19],0.533 mL/min/kg
same,Activity,Hepatitis B virus [20],Active
same,Activity,A-375,Non-Toxic
same,Activity,Hepatitis B virus [21],2.2 log10ng/ml
same,Activity,PBMC,Non-Toxic
same,hepatic extraction ratio,[22],0.02
same,Activity,HepG2,Non-Toxic
same,clearance,[23],2.17 mL/min/kg
same,hepatic extraction ratio,[24],0.072
same,Activity,AN3-CA,Non-Toxic
same,bioavailability,[25],> 100%
same,Activity,MRC5,Non-Toxic
same,Activity,Hepatitis B virus [26],Active
same,EC50,Hepatitis B virus [27],5.8 nM
